Where a SMILES comes first, the peptide text is derived from it.
Biological target: T1, angiotensin I converting enzyme (ACE) (Oryctolagus cuniculus, UniProt P12822)
T1 construct: ACE (from rabbit lung; 2.0 units/mg of protein); purchased Sigma Chemical Company (St. Louis, MO, USA); host or cells: rabbit lung (tissue-derived)
T1 sequence (P12822 34-1310): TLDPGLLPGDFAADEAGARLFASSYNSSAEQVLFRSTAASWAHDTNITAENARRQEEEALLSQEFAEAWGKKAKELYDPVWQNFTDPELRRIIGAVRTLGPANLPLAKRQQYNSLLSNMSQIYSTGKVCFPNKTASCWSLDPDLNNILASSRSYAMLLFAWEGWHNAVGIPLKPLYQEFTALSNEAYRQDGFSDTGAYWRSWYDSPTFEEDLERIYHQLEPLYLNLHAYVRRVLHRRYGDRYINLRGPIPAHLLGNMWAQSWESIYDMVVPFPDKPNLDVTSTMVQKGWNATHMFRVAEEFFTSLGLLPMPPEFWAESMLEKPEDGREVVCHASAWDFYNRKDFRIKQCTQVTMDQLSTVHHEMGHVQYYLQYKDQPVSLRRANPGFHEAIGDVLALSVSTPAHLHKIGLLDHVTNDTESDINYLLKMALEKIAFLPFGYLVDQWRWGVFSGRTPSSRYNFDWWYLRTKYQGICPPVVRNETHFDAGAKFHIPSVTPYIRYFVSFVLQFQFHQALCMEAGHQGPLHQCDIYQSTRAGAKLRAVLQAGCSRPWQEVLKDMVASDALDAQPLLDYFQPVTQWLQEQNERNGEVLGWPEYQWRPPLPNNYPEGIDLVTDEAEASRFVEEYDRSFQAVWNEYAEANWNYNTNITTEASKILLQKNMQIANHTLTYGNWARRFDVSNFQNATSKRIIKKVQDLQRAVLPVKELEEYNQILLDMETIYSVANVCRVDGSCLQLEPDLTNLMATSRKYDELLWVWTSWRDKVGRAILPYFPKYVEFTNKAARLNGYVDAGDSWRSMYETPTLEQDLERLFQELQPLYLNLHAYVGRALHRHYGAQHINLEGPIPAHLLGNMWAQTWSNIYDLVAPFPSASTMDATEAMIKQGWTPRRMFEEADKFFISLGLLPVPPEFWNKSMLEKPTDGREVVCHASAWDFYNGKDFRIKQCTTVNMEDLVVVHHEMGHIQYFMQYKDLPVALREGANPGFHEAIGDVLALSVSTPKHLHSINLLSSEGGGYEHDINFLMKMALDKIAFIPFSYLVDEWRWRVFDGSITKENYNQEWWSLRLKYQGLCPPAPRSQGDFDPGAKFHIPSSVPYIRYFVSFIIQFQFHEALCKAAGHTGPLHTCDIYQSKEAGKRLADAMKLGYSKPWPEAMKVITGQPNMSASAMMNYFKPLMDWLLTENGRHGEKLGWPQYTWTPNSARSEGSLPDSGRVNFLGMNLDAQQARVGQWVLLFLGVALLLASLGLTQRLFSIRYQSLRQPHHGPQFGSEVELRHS
Experiment: ACE inhibitory activity (IC50 and inhibitory ratio IP)
Format: biochemical
Settings: ACE from rabbit lung
Protocol: Lizard fish was purchased from a local market in Nanning, China, during the fishing season. It was identified by engineer Cuican at Beihai Institute of Oceanology. Its muscle was rapidly separated, dried with hot air (90 °C) over 8 h, powdered, and then stored in the cryogenic refrigerator. Agarose (BR) and NiSO4·6H2O (AR) were purchased from Sinopharm Chemical Reagent Co., (Beijing, China). Iminodiacetic acid (IDA) was purchased from Sinopharm Chemical Reagent Co., Ltd. (Beijing, China). ACE (from rabbit lung; 2.0 units/mg of protein) and hippuryl-L-histidyl-L-leucine (HHL) were purchased from the Sigma Chemical Company (St. Louis, MO, USA). All other reagents used were of analytical grade.
The affinity column was equilibrated at a flow rate of 1.5 mL·min^−1 with PBS. […] Fractions with affinity for Ni^2+ ion were eluted and monitored at 280 nm. […] The ACE-inhibitory activity of these fractions were determined, and the inhibitory ratios (IP) were calculated according to Wu et al.. The concentrations of protein were measured by the UV method using a wavelength of 280 nm, and the protein recovery rate was calculated as follows: (1) R=m/M×100% • R—Recovery rate of protein, %; • m—Protein content of the sample eluted from IMAC (IMAC fractions), mg; • M—Protein content of the sample before treatment of IMAC chromatographic procedures, mg.

- IC50 (ACE inhibition, HHL listed as material, inhibitory ratios calculated according to Wu et al. [22]): 52 µM
- IP% (inhibitory activity of fractions separated by RP-HPLC) (RP-HPLC fractions of F2 (Zorbax SB C18), inhibitory ratio according to Wu et al. [22], test concentration not given): 73.05%
Compound: N=C(N)NCCC[C@H](NC(=O)[C@H](Cc1ccc(O)cc1)NC(=O)[C@@H](N)CCCNC(=N)N)C(=O)N1CCC[C@H]1C(=O)O [RYRP, Arg-Tyr-Arg-Pro] (H-RYRP-OH)

— paper PMC5334609, “Separation and Characterization of Angiotensin I Converting Enzyme (ACE) Inhibitory Peptides from Saurida elongata Proteins Hydrolysate by IMAC-Ni^2+” (Marine Drugs, 2017)
